{
  "source": "paper PMC8333062",
  "about": "“Chemical tools for epichaperome-mediated interactome dysfunctions of the central nervous system” (Nature Communications, 2021)",
  "key": {"[1]": {"target": "HSP90 pools in JNPL3 (AD transgenic) mouse brain lysate", "test": "Fluorescence polarization (FP) competitive binding, cy3B-GM", "details": "read-out: FP relative affinity"}, "intracranial MDA-MB-468": {"system": "intracranial MDA-MB-468", "test": "Survival studies in mice", "assay_type": "in vivo, mouse", "details": "50 mg kg^−1 iv, three times per week, n=7"}, "[2]": {"test": "Metabolic stability in liver microsomes", "assay_type": "in vitro ADME, human", "details": "No inhibitor", "description": "All samples were assayed in duplicate.\nTo identify cytochrome P450 enzymes responsible for PU-HZ151’s metabolism in human liver microsomes the following procedure was followed. Phosphate buffer (100 mM, pH 7.4) was prepared monthly and stored at 4 °C. Frozen stock solutions of human liver microsomes (Life Technologies; Cat# HMMCPL) were used once after thawing and were not refrozen. NADPH stock solution (50 mM) in distilled water was prepared fresh daily. Stock solutions of PU-HZ151 (1 mM in DMSO) and CYP inhibitors, furafylline (10 mM) for CYP1A2, tranylcypromine (2 mM) for CYP2A6, ketoconazole (1 mM) for CYP3A, troleandomycin (20 mM) for CYP3A4, orphenadrine (50 mM) for CYP2B6, montelukast (3 mM) for CYP2C8, sulfaphenazole (10 mM) for CYP2C9, benzylnirvanol (1 mM) for CYP2C19, quinidine (1 mM) for CYP2D6, and 1-aminobenzotriazole (1 mM) for all the P450 enzymes were stored at −20 °C. The stock solutions of these P450 inhibitors were prepared in DMSO. General procedure: PU-HZ151 (1 µM) was incubated with human liver microsomes (0.5 mg protein mL^−1), 2.5 mM NADPH, 3.3 mM magnesium chloride, and chemical inhibitors (various concentrations) in phosphate buffer (100 mM, pH 7.4) at 37 °C for up to 60 min. […] The concentration of the chemical inhibitors used in the assay were furafylline (10 μM), tranylcypromine (2 μM), ketoconazole (1 μM), troleandomycin (20 μM), orphenadrine (50 μM), montelukast (3 μM), sulfaphenazole (10 μM), benzylnirvanol (1 μM), quinidine (1 μM), and 1-aminobenzotriazole (1 mM) for all the P450 enzymes. Timing of the reactions was started following the addition of NADPH/magnesium chloride mix and PU-HZ151. Time-dependent chemical inhibitors (furafylline, troleandomycin, orphenadrine, and 1-aminobenzotriazole) were preincubated with human microsomes in the presence of NADPH and magnesium chloride for 15 min before the addition of PU-HZ151 and timing of reactions was started after addition of PU-HZ151. […]"}, "normal neurons": {"system": "normal neurons", "assay_type": "cell-based", "details": "constant exposure of 72 hours"}, "[3]": {"test": "Acute toxicity, single IV infusion", "assay_type": "in vivo, B6D2F1 mice", "details": "2 mg/kg IV once, 14 days", "excerpt": "Samus Therapeutics, Inc. Confidential 07-November-2017 […]\nother pathologic tissues, such as brain regions afflicted by neurodegeneration).This unique behavior of PU-AD provides the rationale for its favorable therapeutic index. It also provides the rationale for the use of a 124I-labeled PU-AD as a PET imaging agent to 1. detect tissues associated with stress HSP90 and 2. inform on the biodistribution and PK of PU -AD.\nTo assess acute toxicity of a single intravenous (IV) infusion of PU-AD, B6D2F1 mice (15 males and 15 females/group) were dosed IV once with either vehicle control or PU-AD at a dose of 2 mg/kg, which corresponds to 200x the maximum intended human dose for the PU-AD PET study. […]\nnormal behavior throughout. […] No abnormal findings were detected during gross necropsy, while complete histopathology evaluation is still pending. […]\nTo asses if chronic administration of PU -AD presented any toxicities, a preliminary study in 13 (6 male & 7 female) B6C3F1 mice was conducted. […] Thyroid was evaluated because PU-AD contains an […]\n124I-PU-AD radiation dosimetry is a key part of this pilot trial, and 124I-PU-AD radiation dosimetry analyses shall be ongoing during the trial. In brief, region -of-interest (ROI) image analysis of 124I-PU-AD PET data allows organ dosimetry, calculated using the MIRD formalism as […]"}},
  "data": [
    {"smiles": "CC(C)(C)CNCCn1c(Sc2cc3c(cc2I)OCO3)nc2c(N)ncnc21", "note": "[Compound 85]", "values": [
      {"measurement": "EC50", "setting": "[1]", "value": 5, "unit": "nM"},
      {"measurement": "survival vs vehicle, log-rank P", "setting": "intracranial MDA-MB-468", "value": 0.0001},
      {"measurement": "% PU-HZ151 remaining", "setting": "[2]; 15 min", "value": 52.7, "unit": "%"},
      {"measurement": "% PU-HZ151 remaining", "setting": "[2]; 30 min", "value": 34.7, "unit": "%"},
      {"measurement": "% PU-HZ151 remaining", "setting": "[2]; 60 min", "value": 17.2, "unit": "%"},
      {"measurement": "concentration needed to induce toxicity", "setting": "normal neurons", "value": 100, "unit": "µM"},
      {"measurement": "acute toxicity", "setting": "[3]", "value": "No mortality or morbidity was observed"}
    ]}
  ]
}
